{
  "source": "ChEMBL document CHEMBL1201862",
  "about": "“PubChem BioAssay data set” (2004)",
  "test_in_all_cases": "NCI anticancer screen, dose series, 48 h",
  "key": {"[1]": {"tested_on": "UO-31"}, "[2]": {"tested_on": "SK-OV-3"}, "[3]": {"tested_on": "TK-10"}, "[4]": {"tested_on": "NCI-H226"}, "[5]": {"tested_on": "HOP-62"}, "[6]": {"tested_on": "SW-620"}, "[7]": {"tested_on": "EKVX"}, "[8]": {"tested_on": "K562"}, "[9]": {"tested_on": "LOX IMVI"}, "[10]": {"tested_on": "SK-MEL-28"}, "[11]": {"tested_on": "KM12"}, "[12]": {"tested_on": "KM-20L2"}, "[13]": {"tested_on": "Malme-3M"}, "[14]": {"tested_on": "SK-MEL-2"}, "[15]": {"tested_on": "786-0"}, "[16]": {"tested_on": "HT-29"}, "[17]": {"tested_on": "RXF 393"}, "[18]": {"tested_on": "NCI-H522"}, "[19]": {"tested_on": "OVCAR-3"}, "[20]": {"tested_on": "M14"}, "[21]": {"tested_on": "SK-MEL-5"}, "[22]": {"tested_on": "XF498"}, "[23]": {"tested_on": "NCI-H460"}, "[24]": {"tested_on": "SNB-19"}, "[25]": {"tested_on": "COLO 205"}, "[26]": {"tested_on": "SNB-78"}, "[27]": {"tested_on": "SF-295"}, "[28]": {"tested_on": "DLD-1"}, "[29]": {"tested_on": "NCI-H23"}, "[30]": {"tested_on": "SF-268"}, "[31]": {"tested_on": "SNB-75"}, "[32]": {"tested_on": "LXFL 529"}, "[33]": {"tested_on": "SR"}, "[34]": {"tested_on": "HCC 2998"}, "[35]": {"tested_on": "M19-MEL"}, "[36]": {"tested_on": "OVCAR-4"}, "[37]": {"tested_on": "SN12C"}, "[38]": {"tested_on": "CCRF-CEM"}, "[39]": {"tested_on": "UACC-62"}, "[40]": {"tested_on": "A549"}, "[41]": {"tested_on": "HCT-116"}, "[42]": {"tested_on": "HL-60"}, "[43]": {"tested_on": "HCT-15"}, "[44]": {"tested_on": "UACC-257"}, "[45]": {"tested_on": "ACHN"}, "[46]": {"tested_on": "SF-539"}, "[47]": {"tested_on": "HOP-92"}, "[48]": {"tested_on": "OVCAR-8"}, "[49]": {"tested_on": "U-251"}, "[50]": {"tested_on": "DMS-273"}, "[51]": {"tested_on": "MOLT-4"}, "[52]": {"tested_on": "IGROV-1"}, "[53]": {"tested_on": "A498"}, "[54]": {"tested_on": "DMS-114"}},
  "note": "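Five concentrations, 48 hours, 96-well plates. GI50 marks 50% less growth.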 Active and inactive are the calls of the source. Cut-off read from the data, not from the text of the source: active = GI50 up to about 1.1 µM and inactive = higher.",
  "data": [
    {"smiles": "CC(=O)NC1=C(NCCC(C)C)C(=O)c2ccccc2C1=O", "values": [
      {"measurement": "GI50", "setting": "[1]", "value": "> 50 µM (inactive)"},
      {"measurement": "GI50", "setting": "[2]", "value": "> 50 µM (inactive)"},
      {"measurement": "GI50", "setting": "[3]", "value": "> 50 µM (inactive)"},
      {"measurement": "GI50", "setting": "[4]", "value": "> 50 µM (inactive)"},
      {"measurement": "GI50", "setting": "[5]", "value": "> 50 µM (inactive)"},
      {"measurement": "GI50", "setting": "[6]", "value": "> 50 µM (inactive)"},
      {"measurement": "GI50", "setting": "[7]", "value": "> 50 µM (inactive)"},
      {"measurement": "GI50", "setting": "[8]", "value": "> 50 µM (inactive)"},
      {"measurement": "GI50", "setting": "[9]", "value": "> 50 µM (inactive)"},
      {"measurement": "GI50", "setting": "[10]", "value": "> 50 µM (inactive)"},
      {"measurement": "GI50", "setting": "[11]", "value": "> 50 µM (inactive)"},
      {"measurement": "GI50", "setting": "[12]", "value": "> 50 µM (inactive)"},
      {"measurement": "GI50", "setting": "[13]", "value": "45.9 µM (inactive)"},
      {"measurement": "GI50", "setting": "[14]", "value": "> 50 µM (inactive)"},
      {"measurement": "GI50", "setting": "[15]", "value": "> 50 µM (inactive)"},
      {"measurement": "GI50", "setting": "[16]", "value": "> 50 µM (inactive)"},
      {"measurement": "GI50", "setting": "[17]", "value": "> 50 µM (inactive)"},
      {"measurement": "GI50", "setting": "[18]", "value": "> 50 µM (inactive)"},
      {"measurement": "GI50", "setting": "[19]", "value": "> 50 µM (inactive)"},
      {"measurement": "GI50", "setting": "[20]", "value": "> 50 µM (inactive)"},
      {"measurement": "GI50", "setting": "[21]", "value": "> 50 µM (inactive)"},
      {"measurement": "GI50", "setting": "[22]", "value": "> 50 µM (inactive)"},
      {"measurement": "GI50", "setting": "[23]", "value": "> 50 µM (inactive)"},
      {"measurement": "GI50", "setting": "[24]", "value": "> 50 µM (inactive)"},
      {"measurement": "GI50", "setting": "[25]", "value": "> 50 µM (inactive)"},
      {"measurement": "GI50", "setting": "[26]", "value": "> 50 µM (inactive)"},
      {"measurement": "GI50", "setting": "[27]", "value": "> 50 µM (inactive)"},
      {"measurement": "GI50", "setting": "[28]", "value": "> 50 µM (inactive)"},
      {"measurement": "GI50", "setting": "[29]", "value": "> 50 µM (inactive)"},
      {"measurement": "GI50", "setting": "[30]", "value": "> 50 µM (inactive)"},
      {"measurement": "GI50", "setting": "[31]", "value": "> 50 µM (inactive)"},
      {"measurement": "GI50", "setting": "[32]", "value": "> 50 µM (inactive)"},
      {"measurement": "GI50", "setting": "[33]", "value": "> 50 µM (inactive)"},
      {"measurement": "GI50", "setting": "[34]", "value": "> 50 µM (inactive)"},
      {"measurement": "GI50", "setting": "[35]", "value": "> 50 µM (inactive)"},
      {"measurement": "GI50", "setting": "[36]", "value": "> 50 µM (inactive)"},
      {"measurement": "GI50", "setting": "[37]", "value": "> 50 µM (inactive)"},
      {"measurement": "GI50", "setting": "[38]", "value": "> 50 µM (inactive)"},
      {"measurement": "GI50", "setting": "[39]", "value": "> 50 µM (inactive)"},
      {"measurement": "GI50", "setting": "[40]", "value": "> 50 µM (inactive)"},
      {"measurement": "GI50", "setting": "[41]", "value": "> 50 µM (inactive)"},
      {"measurement": "GI50", "setting": "[42]", "value": "> 50 µM (inactive)"},
      {"measurement": "GI50", "setting": "[43]", "value": "> 50", "unit": "µM"},
      {"measurement": "GI50", "setting": "[44]", "value": "> 50 µM (inactive)"},
      {"measurement": "GI50", "setting": "[45]", "value": "0.0301 µM (active)"},
      {"measurement": "GI50", "setting": "[46]", "value": "> 50 µM (inactive)"},
      {"measurement": "GI50", "setting": "[47]", "value": "> 50 µM (inactive)"},
      {"measurement": "GI50", "setting": "[48]", "value": "> 50 µM (inactive)"},
      {"measurement": "GI50", "setting": "[49]", "value": "> 50 µM (inactive)"},
      {"measurement": "GI50", "setting": "[50]", "value": "> 50 µM (inactive)"},
      {"measurement": "GI50", "setting": "[51]", "value": "> 50 µM (inactive)"},
      {"measurement": "GI50", "setting": "[52]", "value": "> 50 µM (inactive)"}
    ]},
    {"smiles": "COc1ccc(C2C(Cl)C(=O)N2NC(=O)c2ccccc2O)cc1OC", "note": "(configuration not stated)", "values": [
      {"measurement": "GI50", "setting": "[1]", "value": "53.2 µM (inactive)"},
      {"measurement": "GI50", "setting": "[2]", "value": "90.2 µM (inactive)"},
      {"measurement": "GI50", "setting": "[3]", "value": "> 100 µM (inactive)"},
      {"measurement": "GI50", "setting": "[4]", "value": "> 100 µM (inactive)"},
      {"measurement": "GI50", "setting": "[8]", "value": "50.2 µM (inactive)"},
      {"measurement": "GI50", "setting": "[9]", "value": "36.5 µM (inactive)"},
      {"measurement": "GI50", "setting": "[10]", "value": "> 100 µM (inactive)"},
      {"measurement": "GI50", "setting": "[11]", "value": "92.3 µM (inactive)"},
      {"measurement": "GI50", "setting": "[13]", "value": "65.3 µM (inactive)"},
      {"measurement": "GI50", "setting": "[14]", "value": "92 µM (inactive)"},
      {"measurement": "GI50", "setting": "[15]", "value": "> 100 µM (inactive)"},
      {"measurement": "GI50", "setting": "[16]", "value": "65.8 µM (inactive)"},
      {"measurement": "GI50", "setting": "[17]", "value": "> 100 µM (inactive)"},
      {"measurement": "GI50", "setting": "[18]", "value": "32.2 µM (inactive)"},
      {"measurement": "GI50", "setting": "[19]", "value": "75.9 µM (inactive)"},
      {"measurement": "GI50", "setting": "[20]", "value": "> 100 µM (inactive)"},
      {"measurement": "GI50", "setting": "[21]", "value": "60 µM (inactive)"},
      {"measurement": "GI50", "setting": "[22]", "value": "15.5 µM (inactive)"},
      {"measurement": "GI50", "setting": "[23]", "value": "49.5 µM (inactive)"},
      {"measurement": "GI50", "setting": "[53]", "value": "> 100 µM (inactive)"},
      {"measurement": "GI50", "setting": "[24]", "value": "> 100 µM (inactive)"},
      {"measurement": "GI50", "setting": "[26]", "value": "> 100 µM (inactive)"},
      {"measurement": "GI50", "setting": "[27]", "value": "51.8 µM (inactive)"},
      {"measurement": "GI50", "setting": "[28]", "value": "> 100 µM (inactive)"},
      {"measurement": "GI50", "setting": "[29]", "value": "> 100 µM (inactive)"},
      {"measurement": "GI50", "setting": "[30]", "value": "54.2 µM (inactive)"},
      {"measurement": "GI50", "setting": "[54]", "value": "41.1 µM (inactive)"},
      {"measurement": "GI50", "setting": "[32]", "value": "> 10 µM (inactive)"},
      {"measurement": "GI50", "setting": "[35]", "value": "> 100 µM (inactive)"},
      {"measurement": "GI50", "setting": "[36]", "value": "75.9 µM (inactive)"},
      {"measurement": "GI50", "setting": "[37]", "value": "> 100 µM (inactive)"},
      {"measurement": "GI50", "setting": "[38]", "value": "31.6 µM (inactive)"},
      {"measurement": "GI50", "setting": "[39]", "value": "> 100 µM (inactive)"},
      {"measurement": "GI50", "setting": "[40]", "value": "> 100 µM (inactive)"},
      {"measurement": "GI50", "setting": "[41]", "value": "> 100 µM (inactive)"},
      {"measurement": "GI50", "setting": "[42]", "value": "41 µM (inactive)"},
      {"measurement": "GI50", "setting": "[43]", "value": 68.9, "unit": "µM"},
      {"measurement": "GI50", "setting": "[44]", "value": "93.8 µM (inactive)"},
      {"measurement": "GI50", "setting": "[45]", "value": "> 100 µM (inactive)"},
      {"measurement": "GI50", "setting": "[46]", "value": "> 100 µM (inactive)"},
      {"measurement": "GI50", "setting": "[48]", "value": "93.1 µM (inactive)"},
      {"measurement": "GI50", "setting": "[49]", "value": "92.3 µM (inactive)"},
      {"measurement": "GI50", "setting": "[50]", "value": "> 100 µM (inactive)"},
      {"measurement": "GI50", "setting": "[51]", "value": "42.5 µM (inactive)"},
      {"measurement": "GI50", "setting": "[52]", "value": "> 100 µM (inactive)"}
    ]}
  ]
}
